Data as given in PMC7753040, “Discovery of a Potent RIPK3 Inhibitor for the Amelioration of Necroptosis-Associated Inflammatory Injury” (Frontiers in Cell and Developmental Biology, 2020).

Legend:
[1] = In vivo mouse pharmacokinetic study; settings: male ICR mouse
Procedure: (§1) Cytochrome P450 (CYP) inhibitory potency was determined by industrial standard methods as reported previously ([Dong et al., 2015]). Methods to determine potassium channel hERG inhibition and in vivo pharmacokinetic parameters have been previously published ([Lu et al., 2017]).
(C) Pharmacokinetic parameters of Zharp-99 determined in male ICR mouse.

[2] = tested on: mouse bone marrow derived macrophages; assay: TLR4-mediated necroptosis induced by LPS/z-VAD in mouse bone marrow-derived macrophages; assay type: cell-based; settings: mouse BMDM; 2 h pretreatment, LPS 20 ng/ml plus z-VAD for 24 h
Description: (§2) Human colon cancer HT-29 and mouse fibrosarcoma L929 cells were from ATCC. Mouse embryonic fibroblasts (MEF), HT-29 cells stably expressing RIPK3-shRNA and shRNA resistant scramble Flag-tagged RIPK3 (W46), and NIH3T3 cell line stably expressing RIPK3 fused to mutant FK506-binding protein (NIH3T3-RIPK3) were kindly provided by Dr. Xiaodong Wang [National Institute of Biological Sciences (NIBS), Beijing]. HeLa-MLKL (1-190) cell line was a gift from Dr. Zhigao Wang (University of Texas Southwestern Medical Center at Dallas). These cells were cultured in Dulbecco’s modified Eagle’s medium (Hyclone) supplemeted with 10% fetal bovine serum (Invitrogen) and 2 mM L-glutamine (Invitrogen) in a humidified incubator at 37°C and 5% CO2. NIH3T3-RIPK3 was cultured in complete medium containing 2 μg/ml G418 (Calbiochem). […]
(§3) Cells were seeded in 96-well plates and then treated as indicated. The cell viability was determined by assessment of ATP levels using the CellTiter-Glo Luminescent Cell Viability Assay kit following the manufacture’s instructions (Promega). Luminescence was calculated with SpectraMax i3x (Molecular Devices).
Cell viability was determined by measuring ATP levels. […] After 5 h, cell viability was determined by measuring ATP levels and ICP6 mRNA expression was detected using viral genome extracted from cell culture supernatant. *P < 0.05. **P < 0.01. ***P < 0.001.

HT-29 cells = assay: TNF-induced necroptosis in HT-29 cells (cell viability, ATP levels); assay type: cell-based, human; settings: 2 h pretreatment, then TNF-α 40 ng/ml, Smac mimetic 100 nM, z-VAD 20 μM for 48 h, focused library, compared to GSK’872
Procedure: as §3
To discover novel inhibitors of necroptosis, we designed and synthesized a focused library with novel structures based on the GSK’872 scaffold.
Cell viability was assessed by measuring ATP levels. […] T, TNF-α; S, Smac mimetic; Z, z-VAD.

human RIPK1 = target: T1, human RIPK1 (Homo sapiens, UniProt Q13546); assay: In vitro kinase activity assay (ADP-Glo), RIPK1; assay type: biochemical; settings: at 10 μM; ATP 50 μM, MBP 20 μM
T1 construct: purchased SignalChem
T1 sequence (Q13546 1-327 limits assumed): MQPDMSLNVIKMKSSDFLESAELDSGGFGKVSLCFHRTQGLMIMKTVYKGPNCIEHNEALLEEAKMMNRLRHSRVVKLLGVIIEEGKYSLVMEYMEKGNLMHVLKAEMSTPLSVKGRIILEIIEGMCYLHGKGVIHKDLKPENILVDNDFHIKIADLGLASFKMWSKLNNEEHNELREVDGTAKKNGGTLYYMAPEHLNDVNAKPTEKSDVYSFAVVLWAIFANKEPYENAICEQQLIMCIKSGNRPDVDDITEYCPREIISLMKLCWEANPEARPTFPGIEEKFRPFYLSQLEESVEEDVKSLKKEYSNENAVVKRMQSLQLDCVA
Procedure: The recombinant human RIPK1 or RIPK3 protein was incubated with the control DMSO or the indicated compound for around 15 min in the assay buffer (25 mM HEPES PH7.2, 12.5 mM MnCl2, 5 mM EGTA, 20 mM MgCl2, 12.5 mM β-glycerol phosphate, 2 mM EDTA, and 2 mM DTT). ATP (50 μM) and the substrate MBP (20 μM) were then added to the reaction at room temperature for 2 h. The kinase activity was calculated by the measuring the luminescence after the addition of the ADP-Glo Kinase Assay kit according to the manufacture’s instructions (Promega).
In vitro kinase activity assays using recombinant RIPK3 and RIPK1 were performed as described in the section “Materials and Methods.” Data represent mean value ± standard deviation. […] NIH3T3-RIPK3 cells were pretreated with indicated compounds for 2 h and subsequently treated with AP20187 (60 nM) for 24 h. Cell viability was determined by measuring ATP levels. […] HeLa-MLKL (1–190) cells were induced by doxycycline (1 μg/ml) for 24 h. Cells were pretreated with indicated compounds for 2 h and subsequently treated with AP20187 (60nM) for 24h. Cell viability was determined by measuring ATP levels. […] (F) MEFs were treated as indicated for 3 h. Cell lysates were harvest and subjected to western-blot analysis for full length and cleaved caspase 3.

NIH3T3-RIPK3 cells = assay: RIPK3 dimerization-induced cell death in NIH3T3-RIPK3 cells (AP20187); assay type: cell-based, mouse; settings: 2 h pretreatment, AP20187 60 nM 24 h
Description: as §2, with “CO2.” for “CO2. NIH3T3-RIPK3 was cultured in complete medium containing 2 μg/ml G418 (Calbiochem).”
as §3
(§4) In vitro kinase activity assays using recombinant RIPK3 and RIPK1 were performed as described in the section “Materials and Methods.” Data represent mean value ± standard deviation. […] Cell viability was determined by measuring ATP levels. […] Cell viability was determined by measuring ATP levels. […]

[3] = tested on: phosphorylation of RIPK1, RIPK3, and MLKL; assay: Western blot of phosphorylation of RIPK1, RIPK3 and MLKL in HT-29 cells upon necroptotic stimuli; assay type: cell-based, human; settings: 2 h pretreatment, TNF-α/Smac mimetic/z-VAD 8 h
Procedure: (§5) The cell pellets were harvested and dissolved in lysis buffer (20 mM Tris–HCl, pH 7.4 150 mM NaCl, 1% Triton X-100, 1 mM Na3VO4, 10% glycerol, 25 mM β-glycerol-phosphate, 0.1 mM PMSF, with the Sigma phosphatase inhibitors and the Roche Pierce protease inhibitor set). The re-suspended cell pellet was then incubated on ice for 20 min, followed by centrifugation at 13000 × g for 20 min at 4°C. The supernatants were collected and protein concentrations were measured using the BCA Protein Assay Kit (Thermo Fisher Scientifc, United States). Finally, cell lysates were subjected for western-blot analysis of the indicated antibodies.
(§6) Cell lysates were prepared for immunoprecipitation using an anti-Flag antibody. The levels of RIPK3 and RIPK1 in the immunocomplex were determined by western blot analysis.

hERG = hERG (Homo sapiens, UniProt Q12809); assay: hERG inhibition (standard patch clamp); assay type: cell-based
Chain of hERG (Q12809 whole entry): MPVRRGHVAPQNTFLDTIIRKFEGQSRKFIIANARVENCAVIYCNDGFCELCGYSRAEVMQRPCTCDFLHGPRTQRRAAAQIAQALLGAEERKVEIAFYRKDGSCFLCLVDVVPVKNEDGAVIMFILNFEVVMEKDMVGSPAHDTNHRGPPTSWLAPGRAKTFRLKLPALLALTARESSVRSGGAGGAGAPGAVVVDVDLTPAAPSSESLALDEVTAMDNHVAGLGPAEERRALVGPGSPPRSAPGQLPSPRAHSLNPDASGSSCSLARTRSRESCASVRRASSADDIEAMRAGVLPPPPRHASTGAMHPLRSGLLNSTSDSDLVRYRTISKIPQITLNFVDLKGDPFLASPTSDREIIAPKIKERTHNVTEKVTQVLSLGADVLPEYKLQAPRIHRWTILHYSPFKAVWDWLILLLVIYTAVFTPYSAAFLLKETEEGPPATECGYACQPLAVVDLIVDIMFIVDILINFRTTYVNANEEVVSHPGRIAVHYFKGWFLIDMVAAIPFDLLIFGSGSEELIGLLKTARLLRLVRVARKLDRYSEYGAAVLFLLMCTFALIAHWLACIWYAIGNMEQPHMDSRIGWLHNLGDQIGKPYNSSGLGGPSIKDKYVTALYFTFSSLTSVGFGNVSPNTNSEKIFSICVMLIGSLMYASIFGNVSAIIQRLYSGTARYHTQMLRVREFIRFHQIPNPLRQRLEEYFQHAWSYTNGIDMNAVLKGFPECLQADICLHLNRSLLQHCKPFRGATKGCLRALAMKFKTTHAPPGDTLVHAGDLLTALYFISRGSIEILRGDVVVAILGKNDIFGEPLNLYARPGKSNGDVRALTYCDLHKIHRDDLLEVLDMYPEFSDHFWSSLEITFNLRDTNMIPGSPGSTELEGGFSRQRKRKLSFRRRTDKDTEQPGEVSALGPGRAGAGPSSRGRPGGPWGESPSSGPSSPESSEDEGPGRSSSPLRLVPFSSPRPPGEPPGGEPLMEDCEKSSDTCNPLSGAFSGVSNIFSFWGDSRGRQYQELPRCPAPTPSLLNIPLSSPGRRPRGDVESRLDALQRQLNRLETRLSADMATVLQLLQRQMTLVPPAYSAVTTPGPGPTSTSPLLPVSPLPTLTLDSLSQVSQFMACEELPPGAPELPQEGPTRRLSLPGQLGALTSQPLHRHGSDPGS
Procedure: as §1

CYP2C9 = CYP2C9 (Homo sapiens, UniProt P11712); assay: Cytochrome P450 inhibition, CYP2C9; assay type: in vitro ADME
Chain of CYP2C9 (P11712 whole entry): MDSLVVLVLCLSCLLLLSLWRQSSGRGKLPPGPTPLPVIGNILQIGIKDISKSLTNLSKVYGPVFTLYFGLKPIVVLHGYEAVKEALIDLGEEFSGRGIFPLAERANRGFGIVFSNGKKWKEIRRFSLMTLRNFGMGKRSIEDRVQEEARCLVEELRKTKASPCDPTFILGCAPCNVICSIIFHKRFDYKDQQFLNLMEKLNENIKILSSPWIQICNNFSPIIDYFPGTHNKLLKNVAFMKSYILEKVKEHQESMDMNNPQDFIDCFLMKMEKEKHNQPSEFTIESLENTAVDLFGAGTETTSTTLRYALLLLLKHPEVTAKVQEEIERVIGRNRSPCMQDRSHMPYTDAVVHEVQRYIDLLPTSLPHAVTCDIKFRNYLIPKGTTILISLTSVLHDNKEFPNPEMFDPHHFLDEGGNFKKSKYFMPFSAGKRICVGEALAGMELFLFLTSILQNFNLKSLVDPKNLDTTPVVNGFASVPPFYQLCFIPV
Procedure: as §1

RIPK1/RIPK3 complex = target: T2, RIPK1/RIPK3 complex (Homo sapiens, UniProt Q9Y572); assay: RIPK1/RIPK3 necrosome formation in HT-29 cells stably expressing Flag-RIPK3 (immunoprecipitation); assay type: cell-based; settings: TNF-α/Smac/z-VAD 8 h
T2 construct: expressed in transfected cells; host or cells: HT-29 (W46), gift of Dr. Xiaodong Wang
T2 sequence (Q9Y572 whole entry): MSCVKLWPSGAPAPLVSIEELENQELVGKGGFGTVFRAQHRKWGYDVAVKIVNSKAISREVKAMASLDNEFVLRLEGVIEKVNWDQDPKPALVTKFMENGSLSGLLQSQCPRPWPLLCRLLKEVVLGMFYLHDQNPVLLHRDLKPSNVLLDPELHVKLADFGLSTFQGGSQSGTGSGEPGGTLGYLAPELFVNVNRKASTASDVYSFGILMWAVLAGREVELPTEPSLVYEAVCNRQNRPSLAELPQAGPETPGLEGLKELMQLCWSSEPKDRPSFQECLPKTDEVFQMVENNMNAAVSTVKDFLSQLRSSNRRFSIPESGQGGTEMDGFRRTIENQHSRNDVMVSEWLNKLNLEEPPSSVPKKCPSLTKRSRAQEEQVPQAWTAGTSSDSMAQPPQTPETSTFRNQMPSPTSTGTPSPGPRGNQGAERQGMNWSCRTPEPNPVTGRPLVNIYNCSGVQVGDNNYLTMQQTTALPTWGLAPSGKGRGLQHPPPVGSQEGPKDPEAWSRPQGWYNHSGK
T2 sequence (Q13546 whole entry partner): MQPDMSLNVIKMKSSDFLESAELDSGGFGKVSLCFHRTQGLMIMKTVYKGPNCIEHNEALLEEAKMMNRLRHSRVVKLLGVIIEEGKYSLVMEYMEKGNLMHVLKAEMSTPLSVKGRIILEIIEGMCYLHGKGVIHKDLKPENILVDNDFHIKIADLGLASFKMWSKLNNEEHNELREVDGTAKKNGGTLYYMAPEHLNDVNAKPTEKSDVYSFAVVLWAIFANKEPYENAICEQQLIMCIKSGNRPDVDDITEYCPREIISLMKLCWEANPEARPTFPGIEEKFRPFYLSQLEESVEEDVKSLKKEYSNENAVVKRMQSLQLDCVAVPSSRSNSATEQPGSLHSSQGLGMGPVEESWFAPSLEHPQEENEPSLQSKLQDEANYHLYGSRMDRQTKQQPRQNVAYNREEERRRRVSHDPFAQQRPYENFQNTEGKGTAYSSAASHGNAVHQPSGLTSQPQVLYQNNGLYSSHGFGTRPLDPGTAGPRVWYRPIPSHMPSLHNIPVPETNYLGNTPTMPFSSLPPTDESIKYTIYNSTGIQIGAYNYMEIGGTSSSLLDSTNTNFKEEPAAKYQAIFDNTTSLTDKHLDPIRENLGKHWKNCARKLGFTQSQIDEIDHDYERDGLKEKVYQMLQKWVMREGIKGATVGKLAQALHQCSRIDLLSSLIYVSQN
Procedure: as §5, §6

[4] = Metabolic stability in mouse liver microsomes; assay type: in vitro ADME; settings: mouse liver microsomes (MLM)
mouse BMDM = assay: LPS/z-VAD-induced expression of inflammatory cytokines in mouse BMDM (Q-PCR); assay type: cell-based; settings: 2 h pretreatment, LPS 20 ng/ml plus z-VAD 20 μM, 7 h, mRNA
Procedure: Total RNA was extracted using TRIzol Reagent (Invitrogen) from cell pellets. cDNA was synthesized using a Revert Aid First Strand cDNA kit (Thermo Fisher Scientifc). Real-time PCR was performed using corresponding primers and Power SYBR® Green PCR Master Mix (Invitrogen). The data were normalized to GAPDH. The primer sequences are as follows: ICP6 Forward: […], Reverse: GGT […]; TNFα Forward: […], Reverse: […]; CCL3 Forward: […], Reverse: […]; CXCL1 Forward: GCACCC […], Reverse: […] CAGA; GAPDH Forward: […], Reverse: […].

CYP1A2 = CYP1A2 (Homo sapiens, UniProt P05177); assay: Cytochrome P450 inhibition, CYP1A2; assay type: in vitro ADME
Chain of CYP1A2 (P05177 whole entry): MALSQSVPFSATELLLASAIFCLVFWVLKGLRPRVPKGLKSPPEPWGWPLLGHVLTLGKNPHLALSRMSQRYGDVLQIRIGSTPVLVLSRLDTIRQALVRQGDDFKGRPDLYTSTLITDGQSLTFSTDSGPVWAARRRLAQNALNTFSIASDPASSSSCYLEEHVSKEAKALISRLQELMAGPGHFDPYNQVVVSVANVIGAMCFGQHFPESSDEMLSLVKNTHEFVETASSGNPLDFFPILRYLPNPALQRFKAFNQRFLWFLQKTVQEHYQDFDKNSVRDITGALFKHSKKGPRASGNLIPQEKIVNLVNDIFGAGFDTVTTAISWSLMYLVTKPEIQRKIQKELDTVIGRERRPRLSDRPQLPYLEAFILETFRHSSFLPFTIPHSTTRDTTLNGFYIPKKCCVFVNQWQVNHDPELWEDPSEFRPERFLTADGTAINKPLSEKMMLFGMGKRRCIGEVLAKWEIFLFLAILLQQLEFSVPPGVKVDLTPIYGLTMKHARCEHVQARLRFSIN
Procedure: as §1

HeLa-MLKL (1–190) cells = assay: MLKL polymerization-induced necroptosis in HeLa-MLKL (1-190) cells (AP20187); assay type: cell-based, human; settings: doxycycline 1 μg/ml 24 h, 2 h pretreatment, AP20187 60 nM 24 h
Description: as §2, with “CO2.” for “CO2. NIH3T3-RIPK3 was cultured in complete medium containing 2 μg/ml G418 (Calbiochem).”
as §3, §4

C57BL/6 mice = assay: TNF-induced systemic inflammatory response syndrome in mice
Procedure: The status of mice was monitored by measuring anal temperature. Mice mortality was continuously monitored till 60 h after TNF-α administration. Blood was collected 4 h post TNF-α challenge and serum was isolated for further examination.
(A,B) The survival rate (A) and body temperature loss (B) were monitored. […] P-values were determined using the ONE-way ANOVA and multi-comparison test for statistics analysis. (C) After 4 h, serum was collected for mouse IL6 level analysis by ELISA. Data are represented as the mean ± standard deviation.

[5] = 5 mg/kg i.p. 15 min before mouse TNF-α 6.5 μg/mouse i.v.

`O=S1(=O)C=C(C2CC2)c2cc3nccc(Nc4ccc5scnc5c4)c3cc21` [Zharp-99] showed a Vd ([1]; 2 mg/kg (iv), read-out: Vz (volume of distribution)) of 4.4 L/kg, a Cmax ([1]; 10 mg/kg (po)) of 2650 ng/mL and a Tmax ([1]; 10 mg/kg (po)) of 1 h. For the same molecule, the half-life ([1]; 10 mg/kg (po)) was 1.2 h, the AUC ([1]; 10 mg/kg (po), read-out: AUC (exposure)) was 8220 ng·h/mL and the “inhibition of TLR4-mediated necroptosis induced by LPS/z-VAD” value [2] was “potently blocked”. The “inhibition of TNF-induced necroptosis” value (HT-29 cells) was “most efficient inhibitor”, the “effect on RIPK1 kinase activity” value (human RIPK1) was “did not affect” and the RIPK3 dimerization-induced necroptosis (NIH3T3-RIPK3 cells) was “efficiently blocked”. For the same molecule, the “RIPK1 phosphorylation at S166” value [3] was “did not reduce”, the “phosphorylation of MLKL” value [3] was “abolished” and the “phosphorylation of RIPK3” value [3] was “abolished”. For the same molecule, the IC50 (hERG) was > 10 µM, the “% of CYP inhibiton 2C9” value (CYP2C9; 10 μM) was “did not inhibit” and the inhibition at 10 µM (CYP2C9; human, read-out: % of CYP inhibiton 2C9) was -5.59%. The RIPK1/RIPK3 necrosome formation (RIPK1/RIPK3 complex) was “did not affect”, the half-life [4] was 0.433 h and the “LPS/z-VAD-induced expression of inflammatory cytokines including TNFα, CCL3, and CXCL1” value (mouse BMDM) was “could inhibit”. For the same molecule, the “% of CYP inhibiton 1A2” value (CYP1A2; 10 μM) was “did not inhibit”, the inhibition at 10 µM (CYP1A2; human, read-out: % of CYP inhibiton 1A2) was 9.26% and the “polymerized MLKL-induced necroptosis” value (HeLa-MLKL (1–190) cells) was “did not affect”. For the same molecule, the TNFα-induced temperature loss (C57BL/6 mice; [5]) was “ameliorated”, the “protection against TNFα-induced lethal shock (survival)” value (C57BL/6 mice; [5]) was “significantly protected” and the “TNFα-induced production of IL-6 in the serum” value (C57BL/6 mice; 5 mg/kg i.p., serum 4 h post TNF-α, ELISA) was “reduced”.
